# Data reported in US12447121B2, “Composition for promoting the skin microbiome” (BEIERSDORF AG, priority 2020, dated 2025).
# Entries after “also recorded” stand apart in the source; their conditions may differ.
# Experiments:
# skin microbiome = assay: In vivo volunteer study: microbial colony count of skin microbiome samples; parameters: species or system human; settings: applied in the form of a skin care composition to the facial skin (as worded in the summary)
# Description: An in vivo study with 31 volunteers was conducted to examine whether the growth-enhancing compounds that were found effective in the in vitro test can also promote cell growth of the microorganisms in the skin microbiome in vivo when applied to the skin in the form of a lotion. For this purpose, a carrier lotion was prepared to which the test compounds, i.e. the compounds identified as growth-enhancing in the in vitro assays of Example 1, were added. The test formulations were prepared by mixing the compounds to be tested into the carrier lotion. The test formulations were composed as follows: • Formulation 20: […] Carrier lotion+1% urea, 1% sodium Lactate, 1% caprylic/capric triglycerides […] For measuring the microbial colony count, the test site was rinsed with swabs ([…] GmbH, […], Germany) by 3×10 lanes using 2 ml rinsing buffer (12.49 g/L Na2HPO; 0.63 g/L KH2PO4 in molecular grade H2O) in 15 ml Falcon tubes. The sample material was then plated within 60 minutes after collection on Columbia-Sheep-Blood-Tween (COST) agar plates and subsequently incubated. […] After incubation, the bacterial colonies on agar plates were counted using the Countermat Flash.
# S. epidermidis [1] = assay: In vitro growth assay (OD, absorption at 600 nm); assay type: cell-based; settings: CASO deficiency medium
# Description: Overnight cultures of S. epidermidis were inoculated in 20 ml CASO medium and incubated at 37° C. The culture was then diluted and adjusted to an OD600 of 0.25. From this suspension, the starting culture is prepared with a concentration of 5×10^5 CFU/ml by a 1:200 dilution in CASO deficiency medium. Subsequently, solutions containing the different nitrogen, carbon, and lipid sources were mixed with the start cultures and 200 μl/well were pipetted into a 96 well flat transparent plate, at least in triplets. The plate was placed in a Tecan Reader at 37° C. and Absorption was measured at 600 nm every hour over a period of 24-30 h.
# S. epidermidis [2] = assay: In vitro growth assay (plating, colony count); assay type: cell-based; settings: added to low nutrient medium, 37° C., plated and counted; FIGS. 1 and 2
# Description: Potential growth-enhancing compounds that are effective in the stabilization of the microbiome were tested by the following in vitro assay. Overnight cultures of S. epidermidis is inoculated in 20 ml CASO medium and incubated at 37° C. The culture was then diluted and adjusted to an OD600 of 0.25. From this suspension, the starting culture is prepared with a concentration of 5×10^5 CFU/ml by a 1:200 dilution in CASO deficiency medium. Subsequently, solutions containing the different active ingredients were mixed with the start cultures and incubated in a thermal mixer at 37° C. by shaking. Samples are taken at the respective time points for testing, diluted with NaCl and plated out on CASO plates using the spiral plater. The plates are incubated for 24 h at 37° C. and then counted.
Compound,cell number of the resident bacteria (skin microbiome),growth of S. epidermidis (summary in words of Tables 2 and 3) (S. epidermidis [1]),growth of S. epidermidis within 24 hours (S. epidermidis [2])
CC(O)C(=O)O (centres unmarked) [lactic acid],increase,–,–
maltodextrin,–,support the growth,–
CC(=O)C(=O)O [pyruvic acid],significantly increase,–,–
"CC(O)C(=O)O (centres unmarked) [Lactate, lactate]",–,support the growth,significant growth; also recorded: significantly promotes the growth
"OC[C@H]1O[C@H](O[C@H]2[C@H](O)[C@@H](O)C(O)O[C@@H]2CO)[C@H](O)[C@@H](O)[C@@H]1O (mixture of isomers) [Maltose, maltose]",–,support the growth,–
"O=C(CO)[C@@H](O)[C@H](O)[C@H](O)CO [Fructose, fructose]",–,support the growth,–
"OC[C@H]1O[C@@](CO)(O[C@H]2O[C@H](CO)[C@@H](O)[C@H](O)[C@H]2O)[C@@H](O)[C@@H]1O [Sucrose, saccharose]",–,support the growth,–
